Where a name gives a salt, the structure may show the parent alone. Read-outs that look alike come from different tables or passages of the source.
Assays:
[1] = tested on: PKA; settings: cited from earlier work
[2] = biological target: PKA-N-HiBiT (Homo sapiens, UniProt P17612); assay: SDR assay, PKA-N-HiBiT
[3] = biological target: T1, ABL1-N-HiBiT kinase domain (Homo sapiens, UniProt P00519); assay: SDR assay, ABL1-N-HiBiT; settings: for ABL1 SDR pSDR50: heatmap data, 128 kinase inhibitors; for EC50: read-out: SDR Ave SDR50; for EC50 / SDR Ave pSDR50: average
T1 sequence (P00519 233-500): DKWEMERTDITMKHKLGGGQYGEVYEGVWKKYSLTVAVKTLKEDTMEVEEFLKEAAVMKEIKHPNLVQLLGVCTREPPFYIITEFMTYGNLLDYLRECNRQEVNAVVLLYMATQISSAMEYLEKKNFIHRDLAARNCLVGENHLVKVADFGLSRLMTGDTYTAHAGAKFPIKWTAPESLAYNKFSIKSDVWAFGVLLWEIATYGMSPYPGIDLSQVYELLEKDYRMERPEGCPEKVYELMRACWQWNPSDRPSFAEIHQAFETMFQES

[4] = annotation yes/no for kinase library compound, source not given
[5] = PKA-N-HiBiT qHTS, SDR assay, average maximal response
[6] = ABL1-N-HiBiT qHTS, average maximal SDR response
[7] = ABL1-N-HiBiT qHTS, SDR assay, average maximal response
[8] = ABL1-N-HiBiT qHTS, unit inferred
[9] = read-out: PKA SDR Ave SDR50, PKA-N-HiBiT qHTS, SDR assay, average

SDR Ave Max Response [2, 5]	SDR Ave Max Response [3, 6]	Compound	Annotated PKA activity [1, 4]	further results
3.65		Cc1sc2c(c1C)C(c1ccc(Cl)cc1)=N[C@@H](CC(=O)Nc1ccc(OCCOCCOCCOCCNc3cccc4c3C(=O)N(C3CCC(=O)NC3=O)C4=O)cc1)c1nnc(C)n1-2 (some centres unmarked) [ARV-825]	no	SDR Ave Max Response [3, 7]: 5.73
-13.81	59.57	O=C(c1cccc(Cl)c1F)N1CCN(Cc2cccc(Nc3nccs3)n2)CC1 [MK-8745]	no	ABL1 SDR pSDR50 [3]: 5.27; EC50 [3, 8]: 5.74 µM
3.01	9.81	C=CC(=O)Nc1cccc(Oc2nc(Nc3ccc(N4CCN(C)CC4)cc3OC)ncc2Cl)c1 [WZ4002]	no	
63.28	-4.45	NC1(C(=O)N[C@@H](CCO)c2ccc(Cl)cc2)CCN(c2nc[nH]c3nccc2-3)CC1 [AZD-5363]	yes	

Second part, the compound before the results:

Compound	SDR Ave Max Response [2, 5]	SDR Ave Max Response [3, 6]	Annotated PKA activity [1, 4]	further results
CN1CCN([C@H]2CC[C@H](n3cc(-c4ccc(Oc5ccccc5)cc4)c4c(N)ncnc43)CC2)CC1 [A-419259]	-12.03	100.16	no	
CCn1nc(C2CCN(C(=O)CCO)CC2)nc1-c1cnc(N)c(-c2nnc(C(C)(C)C)o2)n1 [AZD-8835]	6.01		no	ABL1 SDR pSDR50 [3]: 4.80; SDR Ave Max Response [3, 7]: 63.43; EC50 ([3]; ABL1-N-HiBiT qHTS, SDR assay): 17.6 µM
Cc1ccc(NC(=O)N2CCN(c3nc(N)nc4sc(-c5cccnc5)nc34)CC2)cc1 [PI4KIII beta inhibitor 3]	3.67	18.89	no	SDR Ave pSDR50 ([3]; ABL1-N-HiBiT qHTS): 4.83; EC50 [3, 8]: 14.9 µM
Cc1n[nH]c2ncc(C(=O)N3CCC[C@H]3c3ccc(Cl)cc3)cc12 [MSC2530818]	40.05		no	EC50 [2]: 14.1 µM; EC50 [2, 9]: 14.5 µM; SDR Ave Max Response [3, 7]: 4.30
N#Cc1ccc2ncnc(NCCc3ccccc3)c2c1 [Senexin A]	-4.85	-0.36	no	
CNC(=O)c1ccccc1Nc1nc(Nc2ccc(N3CCOCC3)cc2OC)ncc1Cl [NVP-TAE226]	11.43	60.77	no	
O=C1CCC(N2C(=O)c3ccccc3C2=O)C(=O)N1 (centres unmarked) [Thalidomide]	-13.01	-2.59	no	
CaMKII-IN-1	-11.95	-23.39	no	ABL1 SDR pSDR50 [3]: 4.38
O=C(NOCC(O)CO)c1cc(Br)c(F)c(F)c1Nc1ccc(I)cc1F (centres unmarked) [PD-318088]	-21.34	-2.26	no	PKA SDR Ave pSDR50 ([2]; PKA-N-HiBiT qHTS, SDR assay, average): 4.33; EC50 [2, 9]: 62 µM
C=CC(=O)N1CCC(Oc2cc3c(Nc4ccc(Cl)c(Cl)c4F)ncnc3cc2OC)CC1 [Poziotinib]	8.47	56.26	no	ABL1 SDR pSDR50 [3]: 4.03
Indirubin	5.53		no	SDR Ave Max Response [3]: 2.52
Cc1cc(F)ccc1-c1nc(NC(CO)CO)nc2c1ccc(=O)n2-c1c(F)cccc1F [Dilmapimod]	3.69		no	SDR Ave Max Response [3, 7]: -3.68
O=C(Nc1cc(C(F)(F)F)ccc1N1CCCCC1)c1ccncc1 [SRPIN340]	1.60	-4.31	no	
CCN1C(=O)CNc2ncc(-c3ccc(-c4nc[nH]n4)nc3C)nc21 [CC-115]	-2.34		no	SDR Ave Max Response [3, 7]: 31.14
UK-371804	6.35		no	ABL1 SDR pSDR50 [3]: 4.69; SDR Ave Max Response [3, 7]: -28.31; EC50 ([3]; ABL1-N-HiBiT qHTS, SDR assay): 26.5 µM
O=C(NCCCNc1nc(Nc2ccc(N3CCOCC3)cc2)ncc1C1CC1)C1CCC1 [MRT-68601 HCl]	1.65		no	SDR Ave Max Response [3, 7]: -7.81

Compound	SDR Ave Max Response [2, 5]	SDR Ave Max Response [3, 6]	Annotated PKA activity [1, 4]	further results
O=C(NC1CCNCC1)c1n[nH]cc1NC(=O)c1c(Cl)cccc1Cl [AT-7519]	-18.47	9.60	no	
CCNC(=O)Nc1ccc(-c2nc3c(c(N4CCOC[C@@H]4C)n2)CCN(c2ncccn2)C3)cc1 [mTOR-IN-1]	1.84	10.90	no	
Cc1nc2ccc(-n3ncc(C(=O)c4cc5ccccc5[nH]4)c3N)cc2[nH]1 [CH-5183284]	4.01	37.79	no	ABL1 SDR pSDR50 [3]: 5.61; EC50 [3, 8]: 2.51 µM
Cc1cccc(/C=N/Nc2cc(N3CCOCC3)nc(OCCc3ccccn3)n2)c1 [Apilimod]	-3.80	7.50	no	
PLX-4720	5.33	37.18	no	ABL1 SDR pSDR50 [3]: 4.63; EC50 [3, 8]: 24.5 µM
CC(C)CCN1c2nc(Nc3cc(F)c(O)c(F)c3)ncc2N(C)C(=O)C1C (centres unmarked) [BI-D1870]	-9.75		no	ABL1 SDR pSDR50 [3]: 5.36; SDR Ave Max Response [3, 7]: -47.47; EC50 ([3]; ABL1-N-HiBiT qHTS, SDR assay): 4.72 µM
COC(=O)Nc1ccc(-c2nc(N3CCOCC3)c3cnn(C4CCN(C(=O)OC)CC4)c3n2)cc1 [WYE-354]	4.88	1.70	no	
CC1(C)OCCn2c1nc1c(N3CCOCC3)nc(-c3cnc(N)nc3)nc12 [GDC-0084]	3.97		no	ABL1 SDR pSDR50 [3]: 5.16; SDR Ave Max Response [3, 7]: 58.32; EC50 ([3]; ABL1-N-HiBiT qHTS, SDR assay): 7.07 µM
COc1ccc(CNC(=O)Nc2ncc([N+](=O)[O-])s2)cc1 [AR-A014418]	-0.25	-7.75	no	
Cc1[nH]c2ccccc2c1C1=C(NCCc2ccc(F)cc2)C(=O)N(C)C1=O [IM-12]	-30.07	-12.41	no	EC50 [2]: 32.4 µM; EC50 [2, 9]: 41.4 µM
STF-083010	1.50	-0.63	no	
Cc1ncc(NC(=O)c2ccc(CN3CCN(C)CC3)c(C(F)(F)F)c2)cc1Nc1nccc(-c2cccnc2)n1 [Flumatinib]	7.84	74.04	no	
Cc1ccccc1-n1c([C@H](C)Nc2nc(N)nc3[nH]cnc23)nc2cccc(C)c2c1=O [CAL-130 Hydrochloride]	2.85	-18.17	no	SDR Ave pSDR50 ([3]; ABL1-N-HiBiT qHTS): 5.40; EC50 [3, 8]: 4.04 µM
FC(F)(F)c1ccc(/C=C/c2nc(COc3ccc(CCCCn4ccnn4)cc3)co2)cc1 [Mubritinib]				Annotated PKA activity [1]: no; SDR Ave Max Response [2]: 6.74; SDR Ave Max Response [3]: 1.25
PHT-427	-6.93	10.06	no	
